# From paper PMC9504583, “Stability Study, Quantification Method and Pharmacokinetics Investigation of a Coumarin–Monoterpene Conjugate Possessing Antiviral Properties against Respiratory Syncytial Virus” (Pharmaceuticals, 2022)
# Like-named read-outs stand apart in the source and are kept apart here.
# Tests used:
# [1] = set-up: method as in PMID 31847686; conditions: ICR mice, oral, cited from earlier work
# [2] = set-up: method as in PMID 27420975; conditions: rats, cited from earlier work
# RSV serotype B = tested on: RSV serotype B; set-up: method as in PMID 34946573; conditions: cited from earlier work
# [3] = stability study in whole mice blood in vitro; type: in vitro ADME; conditions: spike 1000 ng/mL, aliquots 5-240 min, peak area
# Protocol: To study the stability of K-142 in whole blood of mice, a spike containing the substance at the concentration of 1000 ng/mL was prepared. After preparation, the spike was placed on a shaker and shaken throughout the experiment. Aliquots of the spike with a volume of 50 μL were taken after 5, 10, 15, 30, 60, 120, 180 and 240 min, after which the sample was prepared and analyzed, and K-142 peak area in obtained chromatograms was measured.
# It can be seen from the chart (Figure S1) showing the K-142 peak area in the chromatogram that no decrease in its concentration happens for at least 4 h.
# [4] = pharmacokinetics study of K-142 after oral administration to mice; type: in vivo, CD1 mice; conditions: 20 mg/kg
# Protocol: The method has been applied to a pharmacokinetic study of the agent K-142 in mice (n = 8). The substance was administered to the animals orally at a dose of 20 mg/kg. After drug administration, blood samples were taken from the tail vein and treated with the precipitating solution, and the samples were analyzed.
# The maximum values of concentrations observed for animals vary in the range from 15 to 90 ng/mL, and the average value is about 46 ng/mL. Thereafter, the content of the substance in the blood gradually decreases, and almost complete excretion is achieved in about 2 h. As the average concentration of K-142 in mice blood was c.a. 3.1 ng/mL, which is below LLOQ, this time point was not included in calculation of pharmacokinetics parameters and is shown in Figure 5 just for information. Due to the same reason, the data on the concentrations of the agent K-142 in animal #8 were also not taken into account for the calculation. The averaged values of pharmacokinetic parameters were calculated for a period of time from 0 to 60 min and are given in Table 1.
# Experiments were performed on adult CD1 mice (n = 8) weighing 30–40 g. Animals were obtained from the animal facility of the Institute of Cytology and Genetics SB RAS and kept under standard conditions with free access to food and water. All experiments were performed in accordance with the “European Convention for the Protection of Vertebrate Animals Used for Experimental and other Scientific Purposes”, 1986.
# Pharmacokinetics of the agent K-142 was studied at a dose of 20 mg/kg after its oral administration. To prepare the dosage form, a weight of the substance was mixed with c.a. 20 µL of Tween-80 followed by the dilution of the sample with physiological saline to a volume of 0.2 mL per 10 g of mouse bodyweight. Blood aliquots (10 µL) were taken in duplicate from the animal tail vein 10, 20, 30, 45 min, 1, 1.5, 2, 2.5 3, 4, 5 and 6 h after substance administration. The samples were mixed with the precipitation solution and processed according to the protocol and analyzed. Pharmacokinetic parameters were calculated using PKSolver and are presented as mean ± standard error of mean (SEM).
# RSV serotype A = tested on: RSV serotype A; set-up: method as in PMID 34946573; conditions: cited from earlier work
# [5] = CD1, mouse, whole blood, mean ± SEM, calculated 0-60 min, animal #8 excluded
compound,measurement,setting,value
CC(C)=CCc1c(O)ccc2ccc(=O)oc12 [osthenol],Cmax,[1]; 5 mg/kg,66.1 ± 3.2 ng/mL
same,Tmax,[1]; 5 mg/kg,36.3 ± 13.8 min
same,Cmax,[1]; 20 mg/kg,56.0 ± 29.1 ng/mL
same,Tmax,[1]; 20 mg/kg,6.3 ± 1.3 min
same,bioavailability (in words),[1]; 5 and 20 mg/kg,very low bioavailability
CC(C)=CCC/C(C)=C/COc1ccc2ccc(=O)oc2c1 [auraptene],Tmax,"[2]; oral, 100 mg/kg, plasma",108.0 ± 25.3 min
same,maximum concentration in blood plasma,"[2]; oral, 100 mg/kg, plasma",1719 ± 384.3 ng/mL
same,bioavailability,[2],8.5%
CC1(C)C2CC=C(COc3ccc4c5c(c(=O)oc4c3)CCCC5)C1C2 (centres unmarked) [K-142],IC50,RSV serotype B,5 µM
same,time with no decrease in concentration (stability),[3],at least 4 h
same,CL,"[4]; mean ± SEM, calculated 0-60 min, animal #8 excluded",(1.3 ± 0.2) × 10^−2 (mg/kg)/(ng/mL)/min
same,time at which maximum concentration is reached,[4]; whole blood,10 min
same,time to almost complete excretion,[4]; whole blood,about 2 h
same,concentration at 2 h,"[4]; CD1, mouse, whole blood, below LLOQ (5 ng/mL), not used for PK calculation, read-out: average concentration in mice blood at about 2 h",~3.1 ng/mL
same,AUC(0-inf),[4]; [5],26.2 ng·h/mL
same,Cmax,[4]; [5],63.4 ± 19.1 ng/mL
same,half-life,[4]; [5],27.7 ± 5.4 min
same,MRT inf,"[4]; CD1, mouse, whole blood, mean ± SEM, calculated 0-60 min, animal #8 excluded, read-out: MRT0–∞ (converted)",40.5 min
same,IC50,RSV serotype A; RSV serotype A,5 µM
same,selectivity index (SI),"RSV serotype A; RSV, serotype not specified for SI",77
